From the NIST ThermoML archive (doi:10.1016/j.tca.2012.03.028)

Experiments:
[1] = Crystal; Differential scanning calorimeter
[2] = Molar enthalpy of transition or fusion; settings: Crystal; Differential scanning calorimeter

SMILES	Normal melting temperature [1] [°C]	Molar enthalpy of transition or fusion [2] [kJ/mol]
O=C(C(=O)c1ccccc1)c1ccccc1 [1,2-diphenylethanedione]	95	23.3
O=C(O)C(c1ccccc1)c1ccccc1 [2,2-diphenylethanoic acid]	147.2	31.2
CC(=O)Nc1ccccc1 [N-phenylethanamide]	114.4	21.8
O=C(O)c1ccccc1 [benzoic acid]	122.4	18
c1ccc(-c2ccccc2)cc1 [biphenyl]	69.0	18.5
c1ccc2ccccc2c1 [naphthalene]	80.2	18.8
O=C(Oc1ccccc1)c1ccccc1O [phenyl salicylate]	41.8	19
